Results reported in patent publication US20190030018A1 (Celgene Corporation, priority 2017, published 2019).

Tested on: 563 solid tumor cell lines
Assay: Luminex assay in PRISM, 5 days treatment (AUC)
Type: cell-based
Set-up: AUC: scale not given here
Experimental: The AUC values provided in Table 80 below were calculated based on the Median Fluorescent Intensity values, the primary read out of the Luminex assay in PRISM. The following parameters were used in this assay: • 8 point dose was used in triplicate • max concentration of 10 μM was used with serial 4-fold dilutions (low of […]) • 563 adherent cell lines in 23 pools. • treatment duration was 5 days.

O=C1CCC(N2Cc3cc(CNC(=O)C(F)(F)c4ccc(Cl)cc4)ccc3C2=O)C(=O)N1 (stereo not shown) [Compound 1, 2-(4-chlorophenyl)-N-((2-(2,6-dioxopiperidin-3-yl)-1-oxoisoindolin-5-yl)methyl)-2,2-difluoroacetamide]
AUC (SIMA_AUTONOMIC_GANGLIA): 0.764
AUC (SJSA1_BONE): 0.808
AUC (SKES1_BONE): 0.984
AUC (SKHEP1_LIVER): 0.817
AUC (SKLU1_LUNG): 0.644
AUC (SKMEL2_SKIN): 0.910
AUC (SKMEL3_SKIN): 0.848
AUC (SKMEL5_SKIN): 0.831
AUC (SKMEL24_SKIN): 0.862
AUC (SKMEL30_SKIN): 0.795
AUC (SKMES1_LUNG): 0.902
AUC (SKNAS_AUTONOMIC_GANGLIA): 0.832
AUC (SKNBE2_AUTONOMIC_GANGLIA): 0.879
AUC (SKNEP1_BONE): 0.523
AUC (SKNFI_AUTONOMIC_GANGLIA): 0.852
AUC (SKOV3_OVARY): 0.850
AUC (SKPNDW_BONE): 0.861
AUC (SKUT1_SOFT_TISSUE): 0.845
AUC (SNB75_CENTRAL_NERVOUS_SYSTEM): 0.768
AUC (SNGM_ENDOMETRIUM): 0.794
AUC (SNU46_UPPER_AERODIGESTIVE_TRACT): 0.925
AUC (SNU61_LARGE_INTESTINE): 0.881
AUC (SNU81_LARGE_INTESTINE): 0.400
AUC (SNU182_LIVER): 0.179
AUC (SNU216_STOMACH): 0.521
AUC (SNU245_BILIARY_TRACT): 0.853
AUC (SNU308_BILIARY_TRACT): 0.873
AUC (SNU398_LIVER): 0.951
AUC (SNU407_LARGE_INTESTINE): 0.284
AUC (SNU410_PANCREAS): 0.994
AUC (SNU423_LIVER): 0.697
AUC (SNU449_LIVER): 0.971
AUC (SNU668_STOMACH): 0.423
AUC (SNU685_ENDOMETRIUM): 0.812
AUC (SNU719_STOMACH): 0.869
AUC (SNU738_CENTRAL_NERVOUS_SYSTEM): 0.826
AUC (SNU840_OVARY): 0.848
AUC (SNU869_BILIARY_TRACT): 0.782
AUC (SNU878_LIVER): 0.890
AUC (SNU886_LIVER): 0.656
AUC (SNU1041_UPPER_AERODIGESTIVE_TRACT): 0.806
AUC (SNU1066_UPPER_AERODIGESTIVE_TRACT): 0.860
AUC (SNU1077_ENDOMETRIUM): 0.759
AUC (SNU1105_CENTRAL_NERVOUS_SYSTEM): 0.620
AUC (SNU1196_BILIARY_TRACT): 0.653
AUC (SNU1214_UPPER_AERODIGESTIVE_TRACT): 0.826
AUC (SNUC2A_LARGE_INTESTINE): 0.608
AUC (SNUC4_LARGE_INTESTINE): 0.290
AUC (SQ1_LUNG): 0.838
AUC (SU8686_PANCREAS): 0.848
AUC (SUIT2_PANCREAS): 0.856
AUC (SW780_URINARY_TRACT): 0.986
AUC (SW837_LARGE_INTESTINE): 0.995
AUC (SW948_LARGE_INTESTINE): 0.766
AUC (SW1088_CENTRAL_NERVOUS_SYSTEM): 0.835
AUC (SW1116_LARGE_INTESTINE): 0.879
AUC (SW1271_LUNG): 0.718
AUC (SW1573_LUNG): 0.894
AUC (SW1710_URINARY_TRACT): 0.835
AUC (SW1990_PANCREAS): 0.874
AUC (T3M10_LUNG): 0.951
AUC (T24_URINARY_TRACT): 0.906
AUC (T47D_BREAST): 0.698
AUC (T98G_CENTRAL_NERVOUS_SYSTEM): 0.830
AUC (TC32_BONE): 0.681
AUC (TCCPAN2_PANCREAS): 0.905
AUC (TE1_OESOPHAGUS): 0.875
AUC (TE5_OESOPHAGUS): 0.797
AUC (TE6_OESOPHAGUS): 0.864
AUC (TE8_OESOPHAGUS): 0.802
AUC (TE9_OESOPHAGUS): 0.911
AUC (TE10_OESOPHAGUS): 0.872
AUC (TE11_OESOPHAGUS): 0.870
AUC (TE14_OESOPHAGUS): 0.898
AUC (TEN_ENDOMETRIUM): 0.815
AUC (TM31_CENTRAL_NERVOUS_SYSTEM): 0.424
AUC (TOV21G_OVARY): 0.864
AUC (TOV112D_OVARY): 0.871
AUC (TT2609C02_THYROID): 0.251
AUC (TTC709_SOFT_TISSUE): 0.520
AUC (TT_OESOPHAGUS): 0.859
AUC (TT_THYROID): 0.179
AUC (TUHR4TKB_KIDNEY): 0.265
AUC (U2OS_BONE): 0.862
AUC (U87MG_CENTRAL_NERVOUS_SYSTEM): 0.724
AUC (U118MG_CENTRAL_NERVOUS_SYSTEM): 0.871
AUC (U251MG_CENTRAL_NERVOUS_SYSTEM): 0.806
AUC (UACC62_SKIN): 0.837
AUC (UACC257_SKIN): 0.863
AUC (UBLC1_URINARY_TRACT): 0.875
AUC (UO31_KIDNEY): 0.710
AUC (VMRCRCW_KIDNEY): 0.345
AUC (VMRCRCZ_KIDNEY): 0.969
AUC (WM88_SKIN): 0.802
AUC (WM793_SKIN): 0.866
AUC (WM983B_SKIN): 0.861
AUC (WM1799_SKIN): 0.101
AUC (WM2664_SKIN): 0.578
AUC (X8MGBA_CENTRAL_NERVOUS_SYSTEM): 0.805
AUC (X42MGBA_CENTRAL_NERVOUS_SYSTEM): 0.845
AUC (X253JBV_URINARY_TRACT): 0.966
AUC (X253J_URINARY_TRACT): 0.905
AUC (X647V_URINARY_TRACT): 0.284
AUC (X769P_KIDNEY): 0.463
AUC (X786O_KIDNEY): 0.853
AUC (X5637_URINARY_TRACT): 0.624
AUC (X8305C_THYROID): 0.849
AUC (X8505C_THYROID): 0.558
AUC (X2313287_STOMACH): 0.254
AUC (YAPC_PANCREAS): 0.719
AUC (YD8_UPPER_AERODIGESTIVE_TRACT): 0.501
AUC (YD10B_UPPER_AERODIGESTIVE_TRACT): 0.903
AUC (YD38_UPPER_AERODIGESTIVE_TRACT): 0.877
AUC (YKG1_CENTRAL_NERVOUS_SYSTEM): 0.936
AUC (ZR751_BREAST): 0.853
